In brackets after ≈: the same amount, converted by molar mass. Read-outs that look alike come from different tables or passages of the source. Positions of bridges follow the written chain, without caps; N, C: chain ends. Non-standard residues stand in square brackets, D forms with d. Residues, ends and D or L forms follow the SMILES beside them. *: point of attachment. Heptanoyl(6-Me) = CC(C)CCCCC(=O)*; dDab = NCC[C@@H](N)C(=O)O; Dab = NCC[C@H](N)C(=O)O
What was measured:
HEK293 cells = assay: Alamar blue cytotoxicity, HEK293; type: cell-based, human; settings: 24 h, mean ± SD, n = 3, read-out: Toxicity on HEK293 cells
Method: (§1) The A549 human lung adenocarcinoma cells are derived from a patient and were kindly given to us by Dr. Georgia Konstatinidou (Pharmacology Institute, Bern University). HEK293T cells were obtained from ATCC (CRL-11268). A549 and HEK293 were cultured in an incubator at 37 °C with 5% CO2 in RPMI-1640 (Gibco) and DMEM (Gibco) containing 10% fetal bovine serum (Thermo Fisher), 100 I.U./mL penicillin, and 100 μg/mL streptomycin (Gibco).
(§2) The viability of the cells was assessed with an AlamarBlue assay (ThermoFisher). Cells were seeded into 96-well plates, 4000 cells/well (HEK293) and 8000 cells/well (A549), the day before the experiment. Cells were then treated with the increasing concentration of the compound and incubated for 24 h at 37 °C in the presence of 5% CO2. The next day, the medium was removed and replaced by a 10% AlamarBlue solution in full growth medium (DMEM or RPMI-1640). The cells were incubated for 3–5 h at 37 °C with 5% CO2 in a humidified atmosphere. The fluorescence was then measured on a Tecan Infinite M1000 Pro plate reader at λex 560 nm and λem 590 nm. The value was normalized according to the untreated cells.

Burkolderia cenocepacia = assay: microbe, parasite or virus in culture; settings: for MIC Burkolderia cenocepacia: MDR strain, MH broth pH 7.4, 16–20 h, 37 °C
Method: (§3) Antimicrobial activity was determined for all peptides on E. coli W3110, P. aeruginosa PAO1, A. baumannii ATCC19606, K. pneumoniae NCTC418, and methicillin-resistant S. aureus COL and for selected peptides on P. aeruginosa PA14 and the polymyxin B-resistant derivatives PA14 4.13, PA14 4.18, and PA14 2P4 as well as the clinical isolates ZEM-1A and ZEM9A, K. pneumoniae OXA-48, Enterobacter cloacae, Stenotrophomonas maltophilia, B. cenocepacia, and Staphylococus epidermis. To determine the MIC, the broth microdilution method was used.[75] A single bacterial colony was grown in LB medium overnight at 37 °C and 180 rpm shaking. The compounds were prepared as stock solutions of 2 mg/mL in sterilized milliQ deionized water, added to the first well of 96-well sterile, polypropylene round-bottom microtiter plates (TPP, untreated, Corning Incorporated, Kennebunk, USA), and diluted serially by 1/2. […] The bacterial inoculum was prepared by measuring the absorbance of the overnight culture, which was diluted to concentration of the bacteria was quantified by measuring absorbance at 600 nm and diluted to an OD600 of 0.022 in MH medium pH 7.4 (Sigma-Aldrich, Buchs, Switzerland). The sample solutions (150 μL) were mixed with 4 μL of diluted bacterial suspension with a final inoculation of about 5 × 10^5 CFU. For each test, two columns of the plate were kept for sterility control (MH medium only) and growth control (MH medium with bacterial inoculum, no compound). […] The plates were incubated at 37 °C for 16–20 h under static conditions. 15 μL of 3-(4,5-dimethylthiazol-2-yl)-2,5-diphenyltetrazolium bromide (MTT)[76] (1 mg/mL in sterilized milliQ deionized water) was added to each well, and the plates were incubated at room temperature until MTT staining was completed. The MIC was defined as the lowest concentration of the dendrimer that inhibits the visible growth of the tested bacteria (yellow) with the unaided eye.

PA14 2P4 (pmrB) = assay: microbe, parasite or virus in culture; settings: for MIC P. aeruginosaPA14 2P4: supplementary CSV
Method: as §3

PA14 4.13 (phoQ) = assay: microbe, parasite or virus in culture; settings: for MIC P. aeruginosa PA14 4.13: supplementary CSV
Method: as §3

P. aeruginosa ZEM-1A = assay: microbe, parasite or virus in culture; settings: for MIC ZEM-1A: pH 7.4
Method: as §3

PA14 4.18 (pmrB) = assay: microbe, parasite or virus in culture; settings: for MIC P. aeruginosa PA14 4.18: supplementary CSV
Method: as §3

P. aeruginosa PA14 = assay: microbe, parasite or virus in culture; settings: for MIC PA14: MH broth pH 7.4, 16–20 h, 37 °C; for MIC P. aeruginosa PA14: supplementary CSV
Method: as §3

Enterobacter cloacae = assay: microbe, parasite or virus in culture; settings: for MIC Enterobacter cloacae: pH 7.4
Method: as §3

E. coli W3110 = settings: MH broth pH 7.4, 16–20 h, 37 °C
Method: as §3

K. pneumoniae NCTC418 = system: K. pneumoniae NCTC418
Method: as §3

A. baumannii ATCC19606 = system: A. baumannii ATCC19606
Method: as §3

S. aureus COL MRSA = settings: for MIC S. aureus COL MRSA: MH broth pH 7.4, 16–20 h, 37 °C; for MIC S. aureus COL: supplementary CSV, ranges of Table 1 given as one number
Method: as §3

P. aeruginosa PAO1 = system: P. aeruginosa PAO1
Method: as §3

[1] = system: Stenotrophomonas maltophilia; assay: microbe, parasite or virus in culture; type: cell-based; settings: for MIC Stenotrophomonas maltophilia: pH 7.4
Method: as §3

K. pneumoniae Oxa-48 = assay: MIC broth microdilution, K. pneumoniae Oxa-48; type: cell-based, Klebsiella pneumoniae; settings: for MIC K. pneumoniae Oxa-48: MDR strain, MH broth pH 7.4, 16–20 h, 37 °C
Method: as §3

A549 cells = assay: Alamar blue cytotoxicity, A549; type: cell-based, human; settings: 24 h, mean ± SD, n = 3, read-out: Toxicity on A549 lung cancern cells
Method: as §1, §2

Staphylococcus epidermis = assay: MIC broth microdilution, Staphylococcus epidermis; type: cell-based; settings: pH 7.4
Method: as §3

S. aureus Newman = settings: for MIC S. aureus Newman: MH broth pH 7.4, 16–20 h, 37 °C; for MIC S. aureus Newmann: supplementary CSV
P. aeruginosa ZEM9A = assay: microbe, parasite or virus in culture; type: cell-based, Pseudomonas aeruginosa; settings: for MIC ZEM9A: pH 7.4
Method: as §3

[2] = MH broth pH 7.4, 16–20 h, 37 °C
[3] = supplementary CSV, ranges of Table 1 given as one number

SMILES | MIC Burkolderia cenocepacia (Burkolderia cenocepacia) [µg/mL] | MIC P. aeruginosaPA14 2P4 (PA14 2P4 (pmrB)) [µg/mL] | MIC P. aeruginosa PA14 4.13 (PA14 4.13 (phoQ)) [µg/mL] | MIC ZEM-1A (P. aeruginosa ZEM-1A) [µg/mL] | MIC P. aeruginosa PA14 4.18 (PA14 4.18 (pmrB)) [µg/mL] | MIC PA14 (P. aeruginosa PA14) [µg/mL] | MIC P. aeruginosa PA14 (P. aeruginosa PA14) [µg/mL] | MIC Enterobacter cloacae (Enterobacter cloacae) [µg/mL] | MIC E. coli W3110 (E. coli W3110) [µg/mL] | MIC K. pneumoniae NCTC418 (K. pneumoniae NCTC418; [2]) [µg/mL] | MIC K. pneumoniae NCTC418 (K. pneumoniae NCTC418; [3]) [µg/mL] | MIC A. baumannii ATCC19606 (A. baumannii ATCC19606; [2]) [µg/mL] | MIC A. baumannii ATCC19606 (A. baumannii ATCC19606; [3]) [µg/mL] | MIC S. aureus COL MRSA (S. aureus COL MRSA) [µg/mL] | MIC S. aureus COL (S. aureus COL MRSA) [µg/mL] | MIC P. aeruginosa PAO1 (P. aeruginosa PAO1; [2]) [µg/mL] | MIC P. aeruginosa PAO1 (P. aeruginosa PAO1; [3]) [µg/mL] | MIC Stenotrophomonas maltophilia [1] [µg/mL] | MIC K. pneumoniae Oxa-48 (K. pneumoniae Oxa-48) [µg/mL] | MIC Staphylococcus epidermis (Staphylococcus epidermis) [µg/mL] | other results
CC(C)C[C@H](NC(=O)[C@H](CC(C)C)NC(=O)[C@H](CC(C)C)NC(=O)[C@@H](CCCCN)NC(=O)[C@H](CC(C)C)NC(=O)[C@H](CC(C)C)NC(=O)[C@@H](CCCCN)NC(=O)[C@H](CC(C)C)NC(=O)[C@H](CC(C)C)NC(=O)[C@@H](CCCCN)NC(=O)[C@H](N)CCCCN)C(N)=O [ln69, kkLLkLLkLLL] | >64 | 32 (≈ 24.2 µM) | 4 (≈ 3.03 µM) | 2 (≈ 1.51 µM) | 16 (≈ 12.1 µM) | 2 (≈ 1.51 µM) | 2 (≈ 1.51 µM) | 4 (≈ 3.03 µM) | 4 (≈ 3.03 µM) | 8 (≈ 6.05 µM) | 8 (≈ 6.05 µM) | 2 to 4 | 3 (≈ 2.27 µM) | 16 (≈ 12.1 µM) | 16 (≈ 12.1 µM) | 8 (≈ 6.05 µM) | 8 (≈ 6.05 µM) | 2 (≈ 1.51 µM) | 4 (≈ 3.03 µM) | 4 (≈ 3.03 µM) | IC50 (HEK293 cells): 45 ± 8.9 µM; MIC B. cenocepacia (Burkolderia cenocepacia; supplementary CSV): > 64 µg/mL; IC50 (A549 cells): 21 ± 3.3 µM; MIC S. aureus Newman (S. aureus Newman): 8 µg/mL (≈ 6.05 µM); MIC S. aureus Newmann (S. aureus Newman): 8 µg/mL (≈ 6.05 µM); MIC ZEM9A (P. aeruginosa ZEM9A): 8 µg/mL (≈ 6.05 µM)
CC(C)C[C@H](NC(=O)[C@H](CC(C)C)NC(=O)[C@H](CC(C)C)NC(=O)[C@H](CCCCN)NC(=O)[C@H](CC(C)C)NC(=O)[C@H](CC(C)C)NC(=O)[C@H](CCCCN)NC(=O)[C@H](CC(C)C)NC(=O)[C@H](CC(C)C)NC(=O)[C@@H](CCCCN)NC(=O)[C@H](N)CCCCN)C(N)=O [HP2] | >64 | 64 (≈ 48.4 µM) | 4 (≈ 3.03 µM) | 2 (≈ 1.51 µM) | 32 (≈ 24.2 µM) | 2 (≈ 1.51 µM) | 2 (≈ 1.51 µM) | 2 (≈ 1.51 µM) | 4 (≈ 3.03 µM) | 2 to 4 | 3 (≈ 2.27 µM) | 4 (≈ 3.03 µM) | 4 (≈ 3.03 µM) | 4 (≈ 3.03 µM) | 4 (≈ 3.03 µM) | 4 (≈ 3.03 µM) | 4 (≈ 3.03 µM) | 2 (≈ 1.51 µM) | 2 (≈ 1.51 µM) | 2 (≈ 1.51 µM) | MIC S. aureus Newman (S. aureus Newman): 2 µg/mL (≈ 1.51 µM); MIC S. aureus Newmann (S. aureus Newman): 2 µg/mL (≈ 1.51 µM); MIC ZEM9A (P. aeruginosa ZEM9A): 4 µg/mL (≈ 3.03 µM)
CC(C)CCCCC(=O)N[C@@H](CCN)C(=O)N[C@H](C(=O)N[C@@H](CCN)C(=O)N[C@H]1CCNC(=O)[C@H]([C@@H](C)O)NC(=O)[C@H](CCN)NC(=O)[C@H](CCN)NC(=O)[C@H](CC(C)C)NC(=O)[C@@H](Cc2ccccc2)NC(=O)[C@@H](CCN)NC1=O)[C@@H](C)O [Pol B, polymyxin B, reference compound] ({Heptanoyl(6-Me)}-[Dab]T[Dab][Dab][dDab][dF]L[Dab][Dab]T; lactam 4-C) |  |  |  |  |  |  |  |  |  |  |  |  |  |  |  |  |  |  |  |  | MIC (Burkolderia cenocepacia; Burkholderia cenocepacia, pH 7.4, read-out: MIC Burkolderia cenocepacia): > 16 µg/mL; MIC (PA14 2P4 (pmrB); Pseudomonas aeruginosa, PA14, pH 7.4, read-out: MIC PA14 2P4 (pmrB)): 1 µg/mL (≈ 0.841 µM); MIC (PA14 4.13 (phoQ); Pseudomonas aeruginosa, PA14, pH 7.4, read-out: MIC PA14 4.13 (phoQ)): 0.25 µg/mL (≈ 0.21 µM); MIC (P. aeruginosa ZEM-1A; Pseudomonas aeruginosa, ZEM1A, pH 7.4, read-out: MIC ZEM-1A): < 0.125 µg/mL; MIC (PA14 4.18 (pmrB); Pseudomonas aeruginosa, PA14, pH 7.4, read-out: MIC PA14 4.18 (pmrB)): 1 µg/mL (≈ 0.841 µM); MIC (P. aeruginosa PA14; Pseudomonas aeruginosa, PA14, pH 7.4, read-out: MIC PA14): < 0.125 µg/mL; MIC (Enterobacter cloacae; Enterobacter cloacae, pH 7.4, read-out: MIC Enterobacter cloacae): 1 µg/mL (≈ 0.841 µM); MIC ([1]; Stenotrophomonas maltophilia, MDR strain, MH broth pH 7.4, 16–20 h, 37 °C): 0.5 µg/mL (≈ 0.42 µM); MIC (K. pneumoniae Oxa-48; Klebsiella pneumoniae, OXA48, pH 7.4, read-out: MIC K. pneumoniae Oxa-48): 2 µg/mL (≈ 1.68 µM); MIC (P. aeruginosa ZEM9A; Pseudomonas aeruginosa, ZEM9A, MDR strain, MH broth pH 7.4, 16–20 h, 37 °C): 2 µg/mL (≈ 1.68 µM)

— paper PMC10258794, “To Fold or Not to Fold: Diastereomeric Optimization of an α-Helical Antimicrobial Peptide” (Journal of Medicinal Chemistry, 2023)
